Assay results as given in ChEMBL document CHEMBL1136394, “Synthesis and in vivo imaging properties of [11C]befloxatone: a novel highly potent positron emission tomography ligand for mono-amine oxidase-A” (Bioorg Med Chem Lett, 2003).

How the values were obtained:
Mus musculus [1] = organism: Mus musculus; assay: Oral effective dose against phenylethylamine-induced stereotypy in mice; format: functional
[2] = target: T1, Amine oxidase [flavin-containing] A (Rattus norvegicus, UniProt P21396); assay: Compound was tested for inhibition of MAOA in rat brain, heart, liver and duodenum homogenates; Range is 1.9-3.6 nM; format: tissue-based
T1 sequence (P21396 whole entry): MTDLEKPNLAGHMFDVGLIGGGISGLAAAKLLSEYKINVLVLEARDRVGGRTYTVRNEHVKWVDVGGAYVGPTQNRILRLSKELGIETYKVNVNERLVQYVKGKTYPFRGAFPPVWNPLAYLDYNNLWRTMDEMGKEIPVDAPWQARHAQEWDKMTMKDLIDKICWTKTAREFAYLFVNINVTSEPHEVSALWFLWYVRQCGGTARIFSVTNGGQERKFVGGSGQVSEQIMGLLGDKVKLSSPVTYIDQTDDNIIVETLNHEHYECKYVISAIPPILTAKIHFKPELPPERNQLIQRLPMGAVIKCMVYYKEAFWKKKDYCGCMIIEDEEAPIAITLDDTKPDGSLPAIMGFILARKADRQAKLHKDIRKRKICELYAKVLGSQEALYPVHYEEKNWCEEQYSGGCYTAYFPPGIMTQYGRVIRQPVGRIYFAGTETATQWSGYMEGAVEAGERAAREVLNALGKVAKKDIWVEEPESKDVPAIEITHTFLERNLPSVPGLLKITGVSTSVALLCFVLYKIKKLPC

Mus musculus [3] = assay: Intravenous effective dose against L-5-hydroxytryptophan induced generalized tremors in mice; format: functional
[4] = target: T2, Amine oxidase [flavin-containing] A (Homo sapiens, UniProt P21397); assay: Compound was tested for inhibition of MAOA in human brain, heart, liver and duodenum homogenates; Range is 1.9-3.6 nM; format: tissue-based
T2 sequence (P21397 whole entry): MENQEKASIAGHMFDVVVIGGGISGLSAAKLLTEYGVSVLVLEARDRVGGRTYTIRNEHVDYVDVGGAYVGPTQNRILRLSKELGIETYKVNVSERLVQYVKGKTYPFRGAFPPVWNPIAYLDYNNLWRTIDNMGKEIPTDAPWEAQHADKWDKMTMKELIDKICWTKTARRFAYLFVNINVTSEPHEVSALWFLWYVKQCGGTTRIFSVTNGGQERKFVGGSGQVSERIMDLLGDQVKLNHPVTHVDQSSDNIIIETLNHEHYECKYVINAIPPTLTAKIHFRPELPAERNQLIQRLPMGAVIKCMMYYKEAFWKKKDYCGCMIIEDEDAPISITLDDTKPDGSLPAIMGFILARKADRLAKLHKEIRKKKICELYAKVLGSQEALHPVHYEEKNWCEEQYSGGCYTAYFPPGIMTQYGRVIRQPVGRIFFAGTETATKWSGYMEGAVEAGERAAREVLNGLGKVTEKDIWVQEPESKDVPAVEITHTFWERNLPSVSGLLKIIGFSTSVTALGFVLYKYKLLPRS

Mus musculus [5] = assay: Oral effective dose against L-5-hydroxytryptophan induced generalized tremors in mice; Range is 0.1-0.2 mg/Kg; format: functional
[6] = Half life was determined; format: ADME; conditions: rat

COC[C@H]1CN(c2ccc(OCC[C@@H](O)C(F)(F)F)cc2)C(=O)O1 [BEFLOXATONE]
ED50 (Mus musculus [1]): 58 mg/kg
Ri [2]: 1.9 nM
ED50 (Mus musculus [3]): 0.07 mg/kg
Ri [4]: 1.9 nM
ED50 (Mus musculus [5]): 0.2 mg/kg
half-life [6]: 20.4 min
